Laboratory results from patent US20100292210A1, “Novel Compounds for A-Beta-Related Pathologies” (AstraZeneca AB, priority 2009, published 2010).

System: Aβ42 release
Experiment: Aβ42 release from HEK cells stably expressing APPswe, Meso Scale Discovery electrochemiluminescence assay
Format: cell-based
Details: Homo sapiens, HEK293; HEK cell line stably expressing APPswe; 4-6 h incubation with test compound; Aβ42 secreted to cell medium; read-out: pIC50 values of Aβ42 release (converted)
Protocol: The level of activity of the compounds on Aβ formation was tested using the following method:
Compounds were diluted in 100% DMSO and stored at […] prior to use. Human Embryonic Kidney (HEK) cell line stably expressing APP with the Swedish mutation (APPswe) were cultured using Dulbecco's Modified Eagles medium (DMEM) supplied with […] glucose, Na-pyruvate and GlutaMAX with 10% FBS, 100 U/ml penicillin-streptomycin (PEST) respectively, 1×non-essential amino acids (NEAA), […], 100 μg/ml Zeocine. Cells at about 80% confluence were washed with PBS, detached from culture flasks using 1×Trypsin/EDTA diluted in PBS, re-suspended in cell media and plated in 384-well poly-d-lysine coated cell culture plates at about 10000-15000 cells/well, in 25 μL cell media. Optionally, cryo-preserved cells (frozen and stored at −140° C. in 90% cell media and 10% DMSO) were thawed, washed and plated as above. Next the cells were incubated for 15-24 h at 37° C. and 5% CO2, after which cell medium was changed. Fresh medium containing test compound diluted ×200 from prepared compound plate was added to the cells before further incubation for 4-6 hours at 37° C. and 5% CO2. After incubation with test compound the amount of Aβ peptides, including Aβ42, Aβ40, Aβ39, Aβ38 and Aβ37, secreted to cell medium was analyzed using the electrochemiluminescence assay technology from Meso Scale Discovery Technology, in combination with specific antibodies raised against the different Aβ peptides. Potential cytotoxic effects of the compounds were usually assayed by measuring the ATP content (ViaLight) from cell lysate.

IC50 [nM] | SMILES
316 | CN1Cc2ccc(Nc3ccc(-c4cnn(C)c4)nc3)nc2O[C@H](c2ccccc2)C1 [Example 58, (R)-4-Methyl-N-(6-(1-methyl-1H-pyrazol-4-yl)pyridin-3-yl)-2-phenyl-2,3,4,5-tetrahydropyrido[3,2-f][1,4]oxazepin-8-amine]
79.4 | CN1Cc2ccc(Nc3ccc(-c4cnn(C)c4)cc3)nc2O[C@H](c2ccccc2)C1 [Example 59, (R)-4-Methyl-N-(4-(1-methyl-1H-pyrazol-4-yl)phenyl)-2-phenyl-2,3,4,5-tetrahydropyrido[3,2-f][1,4]oxazepin-8-amine]
31.6 | CN1Cc2ccc(Nc3ccc(-n4ccnc4CO)cc3)nc2O[C@H](c2ccccc2)C1 [Example 60, (R)-(1-(4-(4-Methyl-2-phenyl-2,3,4,5-tetrahydropyrido[3,2-f][1,4]oxazepin-8-ylamino)phenyl)-1H-imidazol-2-yl)methanol]
